“Also recorded” adds a separate entry of the source.
Columns and labels:
Wnt/β-catenin pathway [1] = assay: Wnt-responsive EGFP reporter in transgenic zebrafish embryos (7XTCF-siam:EGFP); format: in vivo; conditions: for Wnt signaling activity (EGFP reporter): embryos treated from 4 hpf for 20 hours, compound in medium
fin regrowth = assay: Resumption of caudal fin regrowth after removal of compound; format: in vivo, zebrafish; conditions: resected caudal fins, water containing IWR-1 for 7 d, then removal
Description: Achieving transient repression of pathological Wnt response without incurring permanent damage to normal stem cell function is a key anticancer therapeutic goal.

Axin2 = Axin2 expression in DLD-1 cells; format: cell-based; conditions: exposure for 2 h
Description: Aberrant transcriptional induction of Wnt/β-catenin target genes is typically observed in CRC cells that harbor loss-of-function mutations in the APC tumor suppressor.

Porcn = molecular target: T1, Porcn (Homo sapiens, UniProt Q9H237); assay: Click chemistry labeling of Wnt3A-Fc with alkynyl-PA (Wnt fatty acylation); format: cell-based
T1 construct: endogenous in cells; host or cells: HEK293
T1 sequence (Q9H237 1-461): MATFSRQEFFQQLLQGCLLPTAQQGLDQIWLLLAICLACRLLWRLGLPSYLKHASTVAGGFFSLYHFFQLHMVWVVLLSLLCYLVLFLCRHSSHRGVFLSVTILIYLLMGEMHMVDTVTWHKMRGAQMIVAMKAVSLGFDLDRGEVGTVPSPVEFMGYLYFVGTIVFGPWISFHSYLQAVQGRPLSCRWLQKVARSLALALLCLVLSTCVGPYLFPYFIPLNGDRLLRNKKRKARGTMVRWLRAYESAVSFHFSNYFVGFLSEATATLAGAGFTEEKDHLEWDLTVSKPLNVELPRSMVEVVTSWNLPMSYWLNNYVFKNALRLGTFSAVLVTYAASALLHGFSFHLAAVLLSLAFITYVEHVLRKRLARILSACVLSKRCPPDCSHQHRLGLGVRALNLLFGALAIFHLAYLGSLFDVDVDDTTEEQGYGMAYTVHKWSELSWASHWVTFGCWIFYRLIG
Experimental: Click chemistry. HEK293 cells transiently transfected with the Wnt3A-Fc DNA expression construct were treated with C16 ω-alkynyl fatty acid (see Reagents; 100 μM final concentration) for six hours as previously described (9) in the presence or DMSO or various IWP compounds. C16 ω-alkynyl fatty acid-labeled Wnt3A-Fc protein isolated from cell lysate using Protein A sepharose was then subjected to a copper catalyzed alkyne-azide cycloaddition with biotin-azide with protein immobilized on the sepharose. The biotinylated Wnt protein run on SDS PAGE was detected using HRP conjugated streptavidin.

HHAT = HHAT (Homo sapiens, UniProt Q5VTY9); assay: Click chemistry labeling of Hh protein with alkynyl-PA (Hh fatty acylation); format: cell-based
Wnt1-GFP = assay: Organotypic embryonic kidney culture from Wnt1-GFP mice; format: cell-based
Experimental: Organotypic kidney culture. E11.5 urogenital systems were removed and bisected in sterile phosphate buffered saline (PBS) and then the individual halves were cultured in […] of media at the air-media interface on 24-well tissue culture treated, 6.5 mm diameter, […] pore size Transwell filters (Corning, catalog no. 3422). The media (DMEM with 10% fetal bovine serum (FBS) and Pen/Strep) was supplemented with either DMSO or IWP2 and replaced with fresh media every 12, 24, or 48 hours. All treatments were repeated at least three times with a minimum of six individual kidneys from six distinct embryos each time.

Wnt-GL fusion proteins = assay: Wnt-Gaussia luciferase secretion assay in HEK293 cells; format: cell-based; conditions: HEK293 cells expressing one of several Wnt-GL proteins
Experimental: (§1) Luciferase reporter assays. Wnt-Gaussia luciferase secretion and SuperTopFlash assays were conducted as described using a Dual Luciferase kit (Promega) (Chen et al., 2009).

Wnt5A = assay: Wnt5A-dependent antagonism of Wnt/β-catenin signaling, STF reporter in HEK293 cells; format: cell-based; conditions: Wnt3A-containing conditioned medium
Experimental: as §1

Jnk = assay: Wnt7B-induced Jnk phosphorylation in L fibroblasts; format: cell-based, Mouse; conditions: L fibroblasts transfected with Wnt7B DNA
Dv12 = Dv12 phosphorylation in HeLa cells (Western blot); format: cell-based; conditions: cell-autonomous Wnt signaling
[2] = system: general protein secretion; conditions: previously demonstrated (Chen et al., 2009); cited from earlier work
Hh = conditions: previously demonstrated (Chen et al., 2009); cited from earlier work
Notch = conditions: previously demonstrated (Chen et al., 2009); cited from earlier work
Wnt/β-catenin pathway [3] = assay: Wnt reporter GFP in cultured zebrafish primary embryonic fibroblasts; format: cell-based; conditions: fibroblasts from 6 hpf embryos, GFP visualized 20 hrs later
Description: Zebrafish embryonic cell cultures were initiated from embryos at the shield stage (6 hpf). The embryos were dissociated in trypsin/EDTA solution with gentle homogenization and pipetting. After centrifugation, the collected cells were resuspended in F12/L15/DMEM medium and placed into a 24-well tissue culture plate.

tailfin regeneration = assay: Caudal fin regeneration assay in zebrafish larvae; format: in vivo; conditions: larvae resected at 3 days post fertilization, IWP12 50 μM, 4 days
[4] = system: Wnt-planar cell polarity (Wnt/PCP) signaling; assay: Convergence and extension gastrulation movements, whole mount in situ hybridization; format: in vivo, zebrafish; conditions: embryos treated starting 4 hpf
Engrailed (eng1a) = assay: eng1a expression at the midbrain/hindbrain boundary, in situ hybridization; format: in vivo, zebrafish; conditions: embryos (4 hpf) treated for 20 hours

Chain of HHAT (Q5VTY9 whole entry, species assumed): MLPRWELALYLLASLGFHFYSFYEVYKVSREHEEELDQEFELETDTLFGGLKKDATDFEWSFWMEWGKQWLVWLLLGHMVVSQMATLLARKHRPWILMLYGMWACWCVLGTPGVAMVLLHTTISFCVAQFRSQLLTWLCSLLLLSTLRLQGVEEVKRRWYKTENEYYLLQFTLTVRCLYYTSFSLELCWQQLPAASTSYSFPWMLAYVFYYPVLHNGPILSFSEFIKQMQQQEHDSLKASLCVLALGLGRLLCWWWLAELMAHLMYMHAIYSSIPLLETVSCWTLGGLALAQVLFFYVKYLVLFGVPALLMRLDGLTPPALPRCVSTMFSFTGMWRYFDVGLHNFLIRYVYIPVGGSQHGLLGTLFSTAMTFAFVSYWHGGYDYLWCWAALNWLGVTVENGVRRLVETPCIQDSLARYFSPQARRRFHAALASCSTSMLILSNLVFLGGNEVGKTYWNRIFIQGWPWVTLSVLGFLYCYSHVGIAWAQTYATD

SMILES | Wnt signaling activity (EGFP reporter) (Wnt/β-catenin pathway [1]) | fin tissue regeneration after chemical removal (fin regrowth) | expression of Axin2 (Axin2) | Wnt protein acylation (Porcn) | fatty acylation of Hh mediated by Hhat (HHAT) | tubule induction (Wnt1-GFP; E11.5 embryonic kidney culture, Wnt/β-catenin-dependent process) | accumulation of Wnt1 on the cell surface (Wnt1-GFP; E11.5 embryonic kidney, treated in vitro for 24 hours) | accumulation of Wnt proteins in the cell culture medium (Wnt-GL fusion proteins) | production of non-canonical Wnt (Wnt5A) (Wnt5A) | activation (phosphorylation) of Jnk (Jnk) | Dv12 phosphorylation (Dv12) | general protein secretion [2] | cellular responses mediated by Hh (Hh) | cellular responses mediated by Notch (Notch) | excess of IWP12 equivalent in activity to IWR1 (Wnt/β-catenin pathway [1]; EGFP reporter fluorescence, posterior region) | posterior body morphogenesis (Wnt/β-catenin pathway [1]; zebrafish embryos) | Wnt/β-catenin pathway response (GFP) (Wnt/β-catenin pathway [3]) | tailfin regeneration following resection (tailfin regeneration) | convergence and extension gastrulation movements [4] | expression of MHB marker Engrailed (eng1a) (Engrailed (eng1a))
O=C(Nc1cccc2cccnc12)c1ccc(N2C(=O)[C@@H]3[C@H](C2=O)[C@@H]2C=C[C@H]3C2)cc1 [IWR1] | Dose-dependent effects | able to regenerate tissue to nearly normal levels after chemical removal | a decrease in the expression of Axin2 | – | – | – | – | – | – | – | – | – | – | – | – | – | – | – | – | –
Cc1ccc2nc(NC(=O)CSc3nc4c(c(=O)n3-c3ccccc3)SCC4)sc2c1 [IWP2] | – | – | – | disrupts Wnt protein acylation | does not block fatty acylation | disrupt tubule induction | block the accumulation of Wnt1 on the cell surface | abrogated the accumulation of Wnt proteins in the cell culture medium | inhibits the production of a non-canonical Wnt (Wnt5A) | disrupted | inhibits Dv12 phosphorylation | does not block | does not block | does not block | – | – | – | – | – | –
Cc1ccc2nc(NC(=O)CSc3nc4c(c(=O)n3C)SC(C)C4)sc2c1 (stereo not drawn) [IWP12] | loss of Wnt signaling activity; also recorded: Dose-dependent effects | – | – | – | – | – | – | – | – | – | – | – | – | – | approximately 10 fold | severe effect on posterior body morphogenesis | loss of Wnt/β-catenin pathway responses | block juvenile fish tailfin regeneration | block convergence and extension gastrulation movements | decreased expression of the MHB marker Engrailed (eng1a)

Source: patent publication US20150157633A1, “WNT PROTEIN SIGNALLING INHIBITORS” (The Board of Regents of the University of Texas System, priority 2012, published 2015)
